In US6740680B1, “Pharmaceutical compositions to tetrac and methods of use thereof” (Becton Pharma, Inc., priority 1999, dated 2004):

Tests used:
hypothyroid rats = experiment: Heart weight and heart/body weight in hypothyroid rats infused with Tetrac or T4; format: in vivo, rat; settings: for Heart / Heart/BW (%): hypothyroid rats, mean ± SEM; for Heart: continuous minipump infusion
Procedure: (§1) Seventy-nine male SIVZ rats were purchased from the breeder (Institut für Labortierkunde des Universität Zürich, Zürich, Switzerland). They were rendered hypothyroid by a single injection of [^131I]Na (100 μCi/rat) and before and throughout the experiment 0.02% 2-mercapto-1-methylimidazol (MMI) was added to drinking water. In order to have an euthyroid control group of similar weight and identical age, 10 rats received only MMI in the drinking water and 2 weeks before implanting the minipumps, MMI was withdrawn. Osmotic minipumps (secretion rate 0.25 μl/hour, duration 14 days) were implanted intraperitoneally (i.p.) 2 months after the injection of [^131I]Na. The minipumps were filled with T4 or Tetrac dissolved in 0.05 N NaOH, 2% BSA and 100,000 cpm [^125I]T4 or [^125I]Tetrac as control of their secretion rates. The infusion lasted 13 days. 0, 1.5, 4.5, 13.5 and 40.5 nmol Tetrac/day/100 g or 0.5, 1.5, 4.5 and 13.5 nmol T4/day/100 g bodyweight (BW) (n=4/dose) were infused. An euthyroid control group was included. The animals were weighed every 2 days. Rats were sacrificed by decapitation and blood was collected and stored at […] until use. Tissues (liver, heart, brown adipose tissue, cerebral cortex and pituitary) were removed rapidly, frozen in liquid nitrogen and stored at […] until use.

[1] = Tissue concentrations of Tetrac after 125I Tetrac injection; format: in vivo, rat; settings: for Calculated tissue concentration of Tetrac: calculated with highest serum Tetrac level (406 pmol/ml)
Procedure: (§2) Monodeiodinase type 1 activity was measured in liver homogenates using 1 μM rT3 and 1 mM DTT with 10 min of incubation, whereas for heart, 0.01 μM rT3 and 10 mM DTT with 1 hour of incubation. Monodeiodinase type 2 activity was measured in brown adipose tissue (BAT) and cerebral cortex using 1 nM rT3, 10 mM DTT and 1 mM propylthiouracil (PTU) with 1 hour of incubation. Protein concentrations were measured by the method of Bradford (Bio-Rad Laboratories GmbH, Munich, Germany) with bovine gammaglobulin as the protein standard. In order to study the effect of circulating Tetrac on the enzyme activities, 2 rats were injected intraperitoneally with 10 μCi ^125I Tetrac and killed 6 hours later. The tissue homogenates were extracted with 3 volumes of ethanol-NH3 (97:3). After 10 minutes centrifugation at 15,000 g, the supernatant was vacuum dried and applied to TLC (Merck 254, Toluol, acetic acid, water: 2:2:1). In order to calculate the tissue concentrations, the highest serum Tetrac levels were used (406 pmol/ml). The calculated tissue concentrations were: liver: 1.9, heart: 2.29 and brain cortex: 0.47 fluol Tetrac/μg protein.

β-MHC mRNA = experiment: Northern blot, β-MHC mRNA in heart; format: in vivo, rat
Procedure: as §1
(§3) Total RNA extraction and Northern Blot hybridization Total RNA was extracted with the method of Chomczynski and Sacchi (Chomczynski, P. and Sacchi, N. Anal. Biochem. (1987) 162: 156-159). […]
(§4) The amount of labeled mRNA was quantified by scanning laser densitometry (Phosphorimager, Molecular Dynamics; Sunnyvale, USA). Variations in RNA loading and membrane transfer were corrected by densitometric quantification of a negative photograph of 28S and 18S ribosomal RNA bands from ethidium bromide stained RNA gels. […]

α-MHC mRNA = experiment: Northern blot, α-MHC mRNA in heart; format: in vivo, rat; settings: infused rats, adjusted group mean at the mean Ln (TSH) concentration
Procedure: as §1, §3, §4

TSH = experiment: Suppression of TSH by Tetrac in humans
Procedure: A patient receiving 200 μg/day dose of T4 was withdrawn from T4 treatment and treated with Tetrac for 21 days with a dose of 2100 μg/day.

Monodeiodinase type 2 = Monodeiodinase type 2 activity in brain cortex and brown adipose tissue of infused rats; format: in vivo, rat; settings: infused rats, remaining activity, adjusted group mean at the mean Ln (TSH) concentration
Procedure: as §1
Monodeiodinase type 1 and 2 activities. Monodeiodinase type 1 and type 2 activities were determined in tissue homogenates by measuring the release of radioiodide from [^125I]rT3 according to the method of Leonard and Rosenberg (Leonard, J. L. et al. Endocrinology (1980) 106: 444-451).
as §2

O=C(O)Cc1cc(I)c(Oc2cc(I)c(O)c(I)c2)c(I)c1 [Tetrac, 3,3′,5,5′-tetraiodothyroacetic acid]
Increase of heart weight relative to body weight with increasing infusion rates (in words) (hypothyroid rats; compared with T4, p<0.01): less efficient
Heart (hypothyroid rats; 1.5 nmol/day/100 g BW): 0.76 ± 0.02 g
Heart (hypothyroid rats; 4.5 nmol/day/100 g BW): 0.83 ± 0.04 g
Heart (hypothyroid rats; 13.5 nmol/day/100 g BW): 0.94 ± 0.03 g
Heart (hypothyroid rats; 40.5 nmol/day/100 g BW): 0.98 ± 0.06 g
Heart/BW (%) (hypothyroid rats; infusion 1.5 nmol/day/100 g BW): 0.31 ± 0.01%
Heart/BW (%) (hypothyroid rats; infusion 4.5 nmol/day/100 g BW): 0.33 ± 0.02%
Heart/BW (%) (hypothyroid rats; infusion 13.5 nmol/day/100 g BW): 0.36 ± 0.01%
Heart/BW (%) (hypothyroid rats; infusion 40.5 nmol/day/100 g BW): 0.39 ± 0.02%
Concentration of Tetrac in brain cortex homogenates ([1]; brain cortex homogenates): less than 1 fmol/μg protein
Calculated tissue concentration of Tetrac ([1]; brain cortex): 0.47 fluol Tetrac/μg protein
Calculated tissue concentration of Tetrac ([1]; heart): 2.29 fluol Tetrac/μg protein
Calculated tissue concentration of Tetrac ([1]; liver): 1.9 fluol Tetrac/μg protein
β-MHC mRNA, Tetrac/T4 (activity of Tetrac in % of T4) (β-MHC mRNA): 66%
β-MHC mRNA, adjusted mean (β-MHC mRNA; infused rats, adjusted group mean at the mean Ln (TSH) concentration): 328 arbitrary units
α-MHC mRNA, adjusted mean (α-MHC mRNA): 5.3 arbitrary units
TSH after treatment (TSH; one patient withdrawn from T4, Tetrac 2100 μg/day, after 21 days): 6.3 mU/L
TSH before treatment (after T4 withdrawal) (TSH; same patient, start of Tetrac treatment): 151.0 mU/L
Residual monodeiodinase type 2 activity, adjusted mean (Monodeiodinase type 2; BAT): 28
Residual monodeiodinase type 2 activity, adjusted mean (Monodeiodinase type 2; Brain Cortex): 27.7
